Results: patent publication US20230257653A1, “FRACTAL FORMULATIONS” (NANOGYRE Sprl., priority 2020, published 2023)
In brackets after ≈: the same amount, converted by molar mass. Like-named read-outs stand apart in the source and are kept apart here.

Key:
[1] = Solubilization of hydrophobic cargo in betaine/Polysorbate 80/water liquid crystal, centrifugation 4000 rpm
Description: Mixing 2 ml of distilled water and 40 μL of Polysorbate 80, then adding 400 mg of pure curcumin, manually mixing and then adding 2 g of betaine all again mixed by vigorous manual stirring. The mixture of the 4 ingredients is then subjected for 20 minutes to a centrifugation of 4000 rpm.
(§1) The mixture of the 4 ingredients is then subjected for 30 minutes to a centrifugation of 4000 rpm.
The mixture of the 4 ingredients is then subjected for 40 minutes to a centrifugation of 4000 rpm.
as §1
Mixing 2 ml of distilled water and 35 μL of Polysorbate 80, then adding 50 mg of Clofazimine, mixing manually and then subjecting to a centrifugation of 4000 rpm and then adding 2 g of betaine all again mixed by vigorous manual stirring. The mixture of the 4 ingredients is then subjected for 30 minutes to a centrifugation of 4000 rpm.

[2] = Visual stability of the mother solution diluted in distilled water (pH 7) or acetic acid (pH 2.2); type: physicochemical; settings: absence of light, 24 h
Description: (§2) 400 μl of the solution produced are taken and poured into a tube of 5 ml of distilled water (pH 7).
400 μl of the solution produced are taken and poured into a tube of 5 ml of acetic acid (pH 2.2).
as §2
200 μl of the solution produced are taken and poured into a tube of 5 ml of distilled water (pH 7).
200 μl of the solution produced are taken and poured into a tube of 5 ml of acetic acid (pH 2.2).
250 μl of the solution produced are taken and poured into a tube of 5 ml of distilled water (pH 7).
250 μl of the solution produced are taken and poured into a tube of 5 ml of acetic acid (pH 2.2).

[3] = Storage stability of the mother solution (deposition); settings: no ethanol
[4] = Redissolution of dried, ground liquid crystal powders and visual pH variation test; type: physicochemical; settings: for changes of resolubilized dry powder solution over time: absence of light, 24 h
Description: The remaining solution of the preceding example is poured into a glass Petri dish (diameter 35 mm) and subjected to drying at 60° C. in a hot air dehydrator (Stockli).
The dry product is then ground until it reaches±50 Mesh and stored in the absence of light and moisture for 10 days.
Next, 100 mg of dry powder are taken and poured into a tube of 5 ml of distilled water (pH 7).
Next, 100 mg of dry powder are taken and poured into a tube of 5 ml of acetic acid (pH 2.2).
Then this acidic solution is brought to an alkaline pH of 8 by adding sodium bicarbonate, in order to mimic the conditions of the pH differences encountered in the stomach and then the intestine.

[5] = substance alone; cited from earlier work
[6] = octanol/water partition coefficient; cited from earlier work
[7] = DLS (Dynamic Light Scattering) particle size of resolubilized dry powder, Zetasizer; type: physicochemical; settings: 100 mg dry powder in 100 ml pure water, kept in the dark 14 days
Description: 100 mg of dry powder of Curcumin of the preceding example are dissolved in 100 ml of pure water before being kept in the dark for 14 days. This solution is then evaluated with DLS (Dynamic Light Scattering) in a Zetasizer apparatus (University of Namur).

[8] = mother solution poured into 5 ml acetic acid (pH 2.2)
[9] = mother solution poured into 5 ml distilled water (pH 7)

| non-solubilized fraction remaining in the bottom of the tube (pellet/base) [1] | concentration of mother solution weighted for the pellet/base ([1]; 2 ml water, 40 μL Polysorbate 80, 2 g betaine, no ethanol) | average particle size of the solution [7] | polydispersity [7] | Compound | estimated concentration of mother solution after centrifugation ([1]; 2 ml water, Polysorbate 80, 2 g betaine, no ethanol) | changes of diluted solution over time [2, 8] | changes of diluted solution over time [2, 9] | stability of mother solution on storage [3] | estimated concentration of mother solution after centrifugation [1] | factor by which solubility in water was multiplied [1] | solubilization result (visual) [1] | dissolution of dry powder ([4]; 100 mg dry powder (stored 10 days) in 5 ml acetic acid (pH 2.2)) | dissolution of dry powder ([4]; 100 mg dry powder (stored 10 days) in 5 ml distilled water (pH 7)) | changes of resolubilized dry powder solution over time ([4]; 5 ml acetic acid (pH 2.2)) | changes of resolubilized dry powder solution over time ([4]; 5 ml distilled water (pH 7)) | stability of the acidic solution brought to alkaline pH ([4]; pH 2.2 solution brought to pH 8 with sodium bicarbonate) | Solubility in Water [5] | Log P [6] |
| --- | --- | --- | --- | --- | --- | --- | --- | --- | --- | --- | --- | --- | --- | --- | --- | --- | --- | --- |
|  |  |  |  | C=C(C)[C@@H]1CCC(C)=C[C@H]1c1c(O)cc(CCCCC)cc1O [Cannabidiol] | 47 mg/mL | no changes over time | no changes over time | remained stable without any deposition, or modification for a year |  |  |  |  |  |  |  |  |  |  |
|  |  |  |  | CC(C)/N=c1\cc2n(-c3ccc(Cl)cc3)c3ccccc3nc-2cc1Nc1ccc(Cl)cc1 [Clofazimine] |  | no changes over time | no changes over time |  | 14.7 mg/mL | 9730 | completely solubilized | immediately solubilizes | immediately solubilizes | no changes over time | no changes over time | remains stable without any precipitation or modification | 1.51 µg/mL (≈ 3.19 µM) | 7.39 |
| 30-40% | 60000 µg/mL | ≤ 10 nanometers | very low | COc1cc(/C=C/C(=O)CC(=O)/C=C/c2ccc(O)c(OC)c2)ccc1O [Curcumin] |  | no changes over time | no changes over time |  | 80 mg/mL | 10,000 |  |  |  |  |  |  | 5.75 µg/mL (≈ 15.6 µM) |  |
